Measured values as given in patent US11986471B2, “Compounds and methods of use” (Tango Therapeutics, Inc., priority 2018, dated 2024).
pIC50: −log10 of the molar value.

What was measured:
PRMT5 [1] = biological target: T1, PRMT5 (Homo sapiens, UniProt O14744); assay: PRMT5 IC50 assay in the presence of SAM as cofactor; assay type: biochemical
T1 construct: purchased Viva (custom protein)
Method in brief: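 Human PRMT5 inhibition, IC50 in μM; cofactor varied (SAM / MTA / none).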

PRMT5 [2] = biological target: T1, PRMT5; assay: PRMT5 IC50 assay with no cofactor; assay type: biochemical; conditions: read-out: No Co-factor IC50
Method in brief: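 Potency against PRMT5 is compared across cofactor states, where IC50 equals Ki×1.5 with SAM present and Ki×13.5 with MTA present.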

PRMT5 [3] = biological target: T1, PRMT5; assay: PRMT5 IC50 assay in the presence of MTA as cofactor; assay type: biochemical; conditions: for pIC50: PRMT5, MTA as cofactor; for SAM/MTA Ratio: ratio between Ki in the presence of SAM and Ki in the presence of MTA
Method in brief: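 Each compound is tested on PRMT5 in the presence of SAM, of MTA, and without any cofactor. Ki values are then back-calculated using fixed factors of 1.5 (SAM) and 13.5 (MTA), and the two Ki values are compared as a ratio.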

HAP1 MTAP-intact = assay: SDMA in-cell western assay, HAP1 MTAP-intact cell line; assay type: cell-based; conditions: Homo sapiens
Source text: Table 1a also indicates IC50 values in an MTAP-isogenic cell line pair for exemplary compounds in an SDMA in-cell western assay (columns 7-8). HAP1 MTAP-intact is a cell line in which endogenous levels of MTAP are expressed, and HAP1 MTAP-deleted is an MTAP-null cell line. […] Compounds with a ratio in the SDMA in-cell western assay of equal to or greater than 3 fold are considered MTAP-selective.

HAP1 MTAP-deleted = assay: SDMA in-cell western assay, HAP1 MTAP-deleted cell line; assay type: cell-based; conditions: for pIC50: Homo sapiens, HAP1 MTAP-deleted cell line; for MTAP Intact/Deleted Ratio: IC50 ratio HAP1 MTAP-intact / HAP1 MTAP-deleted
Source text: Table 1a also indicates IC50 values in an MTAP-isogenic cell line pair for exemplary compounds in an SDMA in-cell western assay (columns 7-8). HAP1 MTAP-intact is a cell line in which endogenous levels of MTAP are expressed, and HAP1 MTAP-deleted is an MTAP-null cell line.

T1 sequence (O14744 whole entry): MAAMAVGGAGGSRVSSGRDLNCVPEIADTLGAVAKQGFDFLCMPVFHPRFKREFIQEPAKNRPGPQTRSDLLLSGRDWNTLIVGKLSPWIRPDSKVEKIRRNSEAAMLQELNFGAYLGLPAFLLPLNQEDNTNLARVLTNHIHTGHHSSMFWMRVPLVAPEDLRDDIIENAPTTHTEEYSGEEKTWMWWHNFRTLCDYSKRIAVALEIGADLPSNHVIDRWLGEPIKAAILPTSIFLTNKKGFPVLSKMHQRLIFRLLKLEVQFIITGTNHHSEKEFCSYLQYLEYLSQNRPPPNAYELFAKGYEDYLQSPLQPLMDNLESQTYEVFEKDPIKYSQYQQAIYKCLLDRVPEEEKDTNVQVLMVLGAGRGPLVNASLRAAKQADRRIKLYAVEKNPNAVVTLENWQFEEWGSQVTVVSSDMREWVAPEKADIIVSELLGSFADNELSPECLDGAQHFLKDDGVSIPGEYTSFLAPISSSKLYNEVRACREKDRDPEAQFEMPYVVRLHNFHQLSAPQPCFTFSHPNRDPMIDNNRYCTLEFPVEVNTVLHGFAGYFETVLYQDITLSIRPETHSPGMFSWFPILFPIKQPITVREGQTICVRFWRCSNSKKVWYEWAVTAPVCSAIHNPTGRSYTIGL
T1 sequence (Q9BQA1 whole entry partner): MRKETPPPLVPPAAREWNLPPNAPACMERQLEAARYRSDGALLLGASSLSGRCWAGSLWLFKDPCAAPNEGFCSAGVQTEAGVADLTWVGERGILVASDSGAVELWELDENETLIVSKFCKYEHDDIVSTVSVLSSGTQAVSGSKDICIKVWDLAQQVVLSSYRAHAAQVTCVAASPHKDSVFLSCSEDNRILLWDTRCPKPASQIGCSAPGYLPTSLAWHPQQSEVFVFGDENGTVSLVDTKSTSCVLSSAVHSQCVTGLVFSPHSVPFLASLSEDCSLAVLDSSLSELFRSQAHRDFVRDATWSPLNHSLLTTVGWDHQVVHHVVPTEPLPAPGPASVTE

Row | pIC50 (PRMT5 [1]) | pIC50 (PRMT5 [2]) | pIC50 (PRMT5 [3]) | pIC50 (HAP1 MTAP-intact) | pIC50 (HAP1 MTAP-deleted) | SMILES | SAM/MTA Ratio (PRMT5 [3]) | MTAP Intact/Deleted Ratio (HAP1 MTAP-deleted)
1 | 5.30 to 6.30 | ≤ 5.30 | 6.30 to 7.30 | ≤ 5.00 | ≤ 5.00 | CC(=O)N1CCC(Nc2cc(C(=O)NC[C@H](O)CN3CCc4cc(OCc5ccnn5C)ccc4C3)ncn2)CC1 [Compound 140, 6-[(1-acetyl-4-piperidyl)amino]-N-[(2S)-2-hydroxy-3-[6-[(2-methylpyrazol-3-yl)methoxy]-3N-dihydro-1H-isoquinolin-2-yl]propyl]pyrimidine-4-carboxamide] | A (a Ki ratio greater than or equal to 10 fold between the Ki in the presence of SAM and the Ki in the presence of MTA) | C* (an IC50 ratio of less than 3 fold between the IC50 in the HAP1 MTAP-intact cell line and the HAP1 MTAP-deleted cell line)
2 | 6.30 to 7.30 | ≤ 5.30 | 6.30 to 7.30 | ≤ 5.00 | 5.00 to 6.00 | Cc1c(OCc2cnco2)ccc2c1CCN(C[C@@H](O)CNC(=O)c1ccnc(NC3CCC3)c1)C2 [Compound 179, 2-(cyclobutylamino)-N-[(2S)-2-hydroxy-3-[5-methyl-6-(oxazol-5-ylmethoxy)-3,4-dihydro-1H-isoquinolin-2-yl]propyl]pyridine-4-carboxamide] | A (a Ki ratio greater than or equal to 10 fold between the Ki in the presence of SAM and the Ki in the presence of MTA) | C* (an IC50 ratio of less than 3 fold between the IC50 in the HAP1 MTAP-intact cell line and the HAP1 MTAP-deleted cell line)
3 | 5.30 to 6.30 | ≤ 5.30 | 6.30 to 7.30 | ≤ 5.00 | ≤ 5.00 | O=C(NC[C@H](O)CN1CCc2c(ccc(OCc3cnco3)c2Cl)C1)c1ccnc(NC2CCC2)c1 [Compound 194, N-[(2S)-3-[5-chloro-6-(oxazol-5-ylmethoxy)-3,4-dihydro-1H-isoquinolin-2-yl]-2-hydroxy-propyl]-2-(cyclobutylamino)pyridine-4-carboxamide] | – | C* (an IC50 ratio of less than 3 fold between the IC50 in the HAP1 MTAP-intact cell line and the HAP1 MTAP-deleted cell line)
4 | 6.30 to 7.30 | ≤ 5.30 | 6.30 to 7.30 | ≤ 5.00 | 5.00 to 6.00 | CC(=O)N1CCC(Nc2cc(C(=O)NC[C@H](O)CN3CCc4c(ccc(OCc5cnco5)c4C)C3)ncn2)CC1 [Compound 198, 6-[(1-acetyl-4-piperidyl)amino]-N-[(2S)-2-hydroxy-3-[5-methyl-6-(oxazol-5-ylmethoxy)-3,4-dihydro-1H-isoquinolin-2-yl]propyl]pyrimidine-4-carboxamide] | A (a Ki ratio greater than or equal to 10 fold between the Ki in the presence of SAM and the Ki in the presence of MTA) | C* (an IC50 ratio of less than 3 fold between the IC50 in the HAP1 MTAP-intact cell line and the HAP1 MTAP-deleted cell line)

Row | SMILES | pIC50 (PRMT5 [1]) | pIC50 (PRMT5 [2]) | pIC50 (PRMT5 [3]) | pIC50 (HAP1 MTAP-intact) | pIC50 (HAP1 MTAP-deleted) | SAM/MTA Ratio (PRMT5 [3]) | MTAP Intact/Deleted Ratio (HAP1 MTAP-deleted)
5 | CC(=O)N1CCC(Nc2cc(C(=O)NC[C@H](O)CN3CCc4cc(OCc5cnco5)ccc4C3)ncn2)CC1 [Compound 135, 6-[(1-acetyl-4-piperidyl)amino]-N-[(2S)-2-hydroxy-3-[6-(oxazol-5-ylmethoxy)-3,4-dihydro-1H-isoquinolin-2-yl]propyl]pyrimidine-4-carboxamide] | 6.30 to 7.30 | ≤ 5.30 | 6.30 to 7.30 | 5.00 to 6.00 | 5.00 to 6.00 | A (a Ki ratio greater than or equal to 10 fold between the Ki in the presence of SAM and the Ki in the presence of MTA) | C* (an IC50 ratio of less than 3 fold between the IC50 in the HAP1 MTAP-intact cell line and the HAP1 MTAP-deleted cell line)
